Assay results published in patent US20220202774A1, “PHARMACEUTICAL COMPOSITION FOR PREVENTION OR TREATMENT OF SPINAL CORD INJURY OR SPINAL STENOSIS” (NEUROBIT SCIENCE CO., LTD., priority 2019, published 2022).
pIC50: −log10 of the molar value. Where two headings read alike, the source gives them in different places.

Columns and labels:
IL-6 mRNA = experiment: RT-PCR of IL-6 mRNA in cauda equina of chronic mechanical allodynia-induced rats; type: in vivo, Sprague-Dawley rats; settings: 30 minutes after administering
Procedure: (§1) Only rats with a weight in the range of 350 to 380 g and in which chronic mechanical allodynia (2.5-4.0 g) was induced on the 28th day of compression of the cauda equina were selected as the experimental group. The rats were randomly assigned to three experimental groups treated with a vehicle, celecoxib, or the compound according to the present invention.
(§2) Celecoxib (Sigma, St. Louis, Mo.) or the compound according to the present invention was dissolved in methyl pyrrolidone:Tween-80:saline (1:1:8, 100 μl) and injected intraperitoneally at a dose of 2, 5, or 10 mg/kg. The vehicle group was injected with 1-methyl-2-pyrrolidone (1-methyl-2-pyrrolidone:Tween-80:saline (1:1:8)) at an equal dose.
(§3) At the time of the peak effect (30 minutes after injection of drug), the rats were anesthetized by injecting chloral hydrate (500 mg/kg) and perfused with 0.1 M PBS (pH 7.4), followed by perfusion with a solution containing 4% paraformaldehyde added to PBS.
(§4) For analysis at the molecular level, the rats were perfused with 0.1 M PBS, and a 20 mm-thick section of the cauda equina with the site of injury at the center was isolated and kept frozen at −80° C. until use.
(§5) RT-PCR of TNF-α, IL-1β, IL-6, iNOS, and GAPDH was performed. […]

PGE2 = PGE2 level in cauda equina fibers by ELISA; type: in vivo, Sprague-Dawley rats
Procedure: as §1, §2, §4
Levels of PEG2 in the cauda equina fibers were analyzed using a PEG2 ELISA kit (Monoclonal, Cayman Chemical Ann Arbor, Mich.) according to the manufacturer's instructions.
An experiment was performed using rats administered with celecoxib and the compound according to the present invention to confirm through RT-PCR whether production of inflammatory mediators is inhibited. Another experiment was performed to confirm through ELISA whether production of PGE2 is inhibited.

[1] = test system: RAW 264.7 (the murine macrophage cell line); experiment: Cytotoxicity of macrophages (MTT assay); type: cell-based; settings: Mus musculus, RAW264.7; RAW 264.7, LPS 1 μg/ml, 24 hours; read-out: Cell viability(μM) (IC50, MTT assay)
Procedure: The physiological activity of 3-(4-chlorophenyl)-4-(4-aminosulfonyl-phenyl)-1-methyl-1H-pyrrole-2,5-dione prepared according to Example 2 has been expressed in terms of IC50, which is the concentration at which there is 50% inhibition of the activity of an enzyme. On the other hand, for the cytotoxicity of the compounds according to the present invention, cell viability values (IC50) were measured using the MTT assay.
RAW 264.7 (the murine macrophage cell line) was cultured in DMEM containing 10% FBS, penicillin (100 units/ml), and streptomycin sulfate (100 μg/ml) at 37° C. and in a humidified atmosphere of 5% carbon dioxide in air. Cells were collected using centrifugation and a scraper. The cells were added at a concentration of 1×10^5 cells/well to wells of a 96-well plate containing Roswell Park Memorial Institute (RPMI) 1640 medium, which includes 10% FBS. 3 beta, 4 beta-epoxy-8a-isobutyryloxyguaia-1(10),11, (13)-diene-12.6a-olide was dissolved in methylsulfoxide (DMSO) as a solvent. […] After one night, samples and LPS (1 μg/ml) were added to the wells, and the plate was incubated for 24 hours. […]

[2] = test system: chronic mechanical allodynia-induced rats; experiment: Paw withdrawal threshold (von Frey) in chronic mechanical allodynia-induced rats after compression of the cauda equina; type: in vivo, Sprague-Dawley rats
Procedure: For experiments related to the present invention, a total of 167 male Sprague-Dawley rats (250 to 270 g, Samtako, Osan, Korea) were used. The rats were kept in an environment of room temperature (23±1° C.) and 60±10% humidity under a 12-hour light/12-hour dark cycle (light on from 07:30 to 19:30) and given free access to water and food. The rats were housed individually in cages (410×282×153 mm, clear polycarbonate) lined with aspen shaving bedding and fed a commercial diet (5L79, PMI Nutrition International, St Louis, Mo.) and a commercial standard feed (Lab Diet 5L791 Purina Mills, Richmond, Ind.). All animal experiments were performed in accordance with the guidelines of the Animal Protection Committee of Kyung Hee University (Permission No. KHUASP(SE)-15-006) and in compliance with the ethical guidelines of the International Association for the Study of Pain.
More specifically, the rats were anesthetized by administering chloral hydrate (500 mg/kg) as an intraperitoneal injection, the backside of each rat was shaved, and the L4 to S2 vertebral plates were exposed.
Next, the ligamenta flava between L4 and L5 were removed. […]
Mechanical allodynia was assessed by detecting responses to stimulation with calibrated von Frey filaments and evaluated in terms of paw withdrawal threshold (PWT). […]

TNF-α mRNA = experiment: RT-PCR of TNF-α mRNA in cauda equina of chronic mechanical allodynia-induced rats; type: in vivo, Sprague-Dawley rats; settings: 30 minutes after administering
Procedure: as §1, §2, §3, §4, §5

IL-1β mRNA = experiment: RT-PCR of IL-1β mRNA in cauda equina of chronic mechanical allodynia-induced rats; type: in vivo, Sprague-Dawley rats
Procedure: as §1, §2, §3, §4, §5

[3] = test system: LPS-induced PGE2 production in RAW 264.7 (a murine macrophage cell line); experiment: Inhibition of production of LPS-induced PGE2 by macrophage cell line; type: cell-based; settings: Mus musculus
Procedure: RAW 264.7 (a murine macrophage cell line) was obtained from Korea Cell Line Bank (KCLB). RAW 264.7 was cultured in Dulbecco's Modified Eagle Medium (DMEM) containing 10% fetal bovine serum (FBS), penicillin (100 units/mL), and streptomycin sulfate (100 μg/mL) at 37° C. and in a humidified atmosphere of 5% carbon dioxide in air.
Using DMEM, 1 mL each of RAW 264.7 with a concentration of 5×10^5 cells/mL was seeded in 24 wells. The seeded cells were left overnight, the medium was changed, and then the drug was treated at an appropriate concentration. After incubating for 1 hour, LPS was treated at 1 μg/ml, followed by incubation for 24 hours (or an appropriate length of time). The supernatant was taken and diluted 5-fold. 150 μl of an assay buffer was added to Non-Specific Binding (NSB) wells, and 100 μl of the assay buffer was added to zero standard (Bo) wells. 100 μl of standard sample and 50 μl of PGE2 conjugates were added to the remaining wells (excluding the NSB wells). 50 μl of PGE2 antibody solution was added to the wells and shaken for 2 hours. The contents of each well were suctioned off, and the wells were washed 5 times with wash buffer. 200 μl of para-nitrophenyl phosphate (pNPP) substrate was added to all wells. After storing the wells at room temperature (in a clean bench) for 1 hour, 50 μl of a stop solution was added, and absorbance was measured at 405 nm. […]

iNOS mRNA = experiment: RT-PCR of iNOS mRNA in cauda equina of chronic mechanical allodynia-induced rats; type: in vivo, Sprague-Dawley rats; settings: 30 minutes after administering
Procedure: as §1, §2, §3, §4, §5

## CN1C(=O)C(c2ccc(Cl)cc2)=C(c2ccc(S(N)(=O)=O)cc2)C1=O [3-(4-chlorophenyl)-4-(4-aminosulfonyl-phenyl)-1-methyl-1H-pyrrole-2,5-dione]
IL-6 mRNA
  expression of IL-6 mRNA: significantly reduced
PGE2
  PGE2 production compared to the vehicle group: significantly reduced
[1]
  IC50: > 10 µM
[2]; 2, 5, 10 mg/kg intraperitoneal, 30 minutes after injecting
  PWT compared to the vehicle group: increased significantly in a dose-dependent manner
[2]; high dose, intraperitoneal
  duration of analgesic effect: 3 h
TNF-α mRNA
  expression of TNF-α mRNA: significantly reduced
IL-1β mRNA
  expression of IL-1β mRNA: significantly reduced
[3]; RAW264.7, 24 h, RAW 264.7, LPS 1 μg/ml, 24 hours, read-out: IC50(μM) PGE2
  IC50: 0.0087 µM
[3]; RAW264.7, RAW 264.7, LPS-induced, text/FIG. 2, read-out: IC50 value for inhibition of PGE2 production
  pIC50: 8.23
iNOS mRNA
  expression of iNOS mRNA: significantly reduced
